The values below come from patent US4642379A, “Intermediates for anticonvulsant agents” (Eli Lilly and Company, priority 1985, dated 1987).

Data set [1] has as its system electroshock induced convulsion. In words: electroshock induced convulsion inhibition assay (E.S.). Format: in vivo, mice (Cox standard strain albino male). The settings on record: for ED50: Mus musculus. Here is the method:
In the elctroshock induced convulsion inhibition assay (E.S.), the compound to be tested was suspended in acacia and administered by gavage to each of ten Cox standard strain albino male mice (18-24 g) at the dose level being investigated. […] The animals were examined and evaluated immediately after the electroshock for the occurrence of clonic, flexor tonic, or extensor tonic convulsions, or death and the ED50 was determined for each compound as the dose which inhibited the occurrence of extensor tonic convulsions in one half of the animals immediately after the electroshock.

For data set [2] the following is noted: man; cited from earlier work.
Where [3] appears, read: oral dose (gavage), mice, 0.1 second, 50 milliampere electroshock through corneal electrodes, at time of optimal response.

The molecule `CNCC(=O)Nc1ccc(C(=O)Nc2c(C)cccc2C)cc1.O=C(O)C(=O)O` [Example 13, N-(2,6-dimethylphenyl)-4-([(methylamino)acetyl]amino)benzamide ethanedioate] yielded an ED50 in data set [1] (setting [3]) of 6.3 mg/kg.

In data set [1] (setting [3]), `CCNCC(=O)Nc1ccc(C(=O)NC(C)c2ccccc2)cc1.Cl` (stereo not drawn) [Example 22, 4-([(Ethylamino)acetyl]amino)-N-(1-phenylethyl)benzamide hydrochloride] showed an ED50 of 28 mg/kg.

Regarding `O=C1NC(=O)C(c2ccccc2)(c2ccccc2)N1` [phenytoin], in data set [2], the “plasma level at which ataxia is obvious” value was 30000 ng/mL, the “plasma level at which lethargy is apparent” value was “about 40 mcg/ml”, the “plasma level at which nystagmus is seen” value is “around 20 mcg/ml” and the “plasma level at which seizures are controlled” value is not below 10 µg/mL.

For `Cc1cccc(C)c1NC(=O)c1ccc(NC(=O)CN2CCCCC2)cc1` [Example 15, N-[4-([(2,6-Dimethylphenyl)amino]carbonyl)phenyl]-1-piperidineacetamide], it took a dose of 9.5 mg/kg to reach the 50% effect level in data set [1] (setting [3]) (ED50).

In turn, `Cc1cccc(C)c1NC(=O)c1ccc(NC(=O)CCN2CCCC2)cc1` [Example 19, N-[4-([(2,6-Dimethylphenyl)amino]carbonyl)phenyl]-1-pyrrolidinepropanamide] yielded an ED50 in data set [1] (setting [3]) of 26.9 mg/kg.

In data set [1] (setting [3]), `Cc1cccc(C)c1NC(=O)c1ccc(NC(=O)C(C)N2CCCC2)cc1` (stereo not drawn) [Example 20] showed a median effective dose (ED50) of 42.5 mg/kg.

For the molecule `CC(=O)Nc1ccc(C(=O)N[C@@H](C)c2ccccc2)cc1` [Example 4, (S)-4-(acetylamino)-N-(1-phenylethyl)benzamide], in data set [1] (setting [3]), the ED50 is 22.2 mg/kg.

With `Cc1cccc(C)c1NC(=O)c1ccc(NC(=O)CN2CCN(C)CC2)cc1` [Example 17, N-[4-([(2,6-Dimethylphenyl)amino]carbonyl)phenyl]-4-methyl-1-piperazineacetamide], the ED50 in data set [1] (setting [3]) is more than 112 mg/kg.

On to `CC(=O)Nc1ccc(C(=O)N[C@H](C)c2ccccc2)cc1` [Example 5], for which the “Electroshock ED50 (mg/kg)” value in data set [1] (setting [3]) is recorded as “ca. 100 mg/kg”. Moreover, in data set [1] (time between oral dosing and electroshock), the “Time After dosing (minutes) providing an optimal response” value came to 60 min.

Molecule `CC(=O)Nc1ccc(C(=O)NC(C)c2ccccc2)cc1` (stereo not drawn) [Example 6, 4-(Acetylamino)-N-(1-phenylethyl)benzamide] displayed an ED50 in data set [1] (setting [3]) of 54 mg/kg.

The molecule `CC(=O)Nc1ccc(C(=O)Nc2c(C)cccc2C)cc1` [Example 1, 4-(Acetylamino)-N-(2,6-dimethylphenyl)benzamide] displayed an ED50 in data set [1] (setting [3]) of 3.6 mg/kg.

In data set [1] (setting [3]), `Cc1cccc(C)c1NC(=O)c1ccc(NC(=O)C(C)C)cc1` [Example 3, N-(2,6-dimethylphenyl)-4-[(2-methyl-1-oxopropyl)amino]benzamide] came in with an ED50 of 8.2 mg/kg.

As to `Cc1cccc(C)c1NC(=O)c1ccc(NC(=O)CN(C)C)cc1` [Example 12, 4-([(Dimethylamino)acetyl]amino)-N-(2,6-dimethylphenyl)benzamide], in data set [1] (setting [3]), the median effective dose (ED50) stood at 8 mg/kg.

Regarding `CCN(CC)CC(=O)Nc1ccc(C(=O)Nc2c(C)cccc2C)cc1.O=C(O)C(=O)O` [Example 14, 4-([(Diethylamino)acetyl]amino)-N-(2,6-dimethylphenyl)benzamide ethanedioate], in data set [1] (setting [3]), the 50% effect level (ED50) was put at a dose of 3.6 mg/kg.

Turning to `Cc1cccc(C)c1NC(=O)c1ccc(NC(=O)CN2CCCCCC2)cc1` [Example 21, N-[4-([(2,6-Dimethylphenyl)amino]carbonyl)phenyl]hexahydro-1-H-azepine-1-acetamide], the ED50 in data set [1] (setting [3]) came out at 5.1 mg/kg.

`CCNCC(=O)Nc1ccc(C(=O)Nc2c(C)cccc2C)cc1` [Example 23, N-(2,6-Dimethylphenyl)-4-([(ethylamino)acetyl]amino)benzamide] gave an ED50 in data set [1] (setting [3]) of 3.2 mg/kg.

`CC(=O)Nc1ccc(C(=O)Nc2c(C)cccc2C)cc1C` [Example 11, 4-(Acetylamino)-N-(2,6-dimethylphenyl)-3-methylbenzamide] registered an ED50 in data set [1] (setting [3]) of 4.5 mg/kg.

`CCC(=O)Nc1ccc(C(=O)Nc2c(C)cccc2C)cc1` [Example 2, N-(2,6-dimethylphenyl)-4-[(1-oxopropyl)amino]benzamide] gave an ED50 in data set [1] (setting [3]) of 10.5 mg/kg.

Molecule `Cc1cccc(C)c1NC(=O)c1ccc(NC(=O)CN2CCOCC2)cc1` [Example 18, N-[4-([(2,6-Dimethylphenyl)amino]carbonyl)phenyl]-4-morpholineacetamide] showed an ED50 in data set [1] (setting [3]) of 17.5 mg/kg.

In data set [1] (setting [3]), `Cc1cccc(C)c1NC(=O)c1ccc(NC(=O)CN2CCCC2)cc1` [Example 16, N-[4-([(2,6-Dimethylphenyl)amino]carbonyl)phenyl]-1-pyrrolidineacetamide] registered an ED50 of 3.75 mg/kg.
